# Data taken from patent US20260166029A1, “METHODS AND SYSTEMS FOR TREATING DISEASE USING AN ATR/CHK1 SIGNALING PATHWAY INHIBITOR” (Acrivon Therapeutics, Inc., priority 2022, published 2026).
# Read-outs that look alike come from different tables or passages of the source.
# Key:
# OVCAR3 cells = test: Cell Titer Glo 2.0 viability after biomarker siRNA knockdown (Example 6); assay type: cell-based; conditions: Homo sapiens, OVCAR-3, 72 h, read-out: absolute EC50
# Description: OVCAR3 cells cultured in RPMI medium with 20% FBS were transfected with siRNA (Silencer Select, cat #4390824, ThermoFisher) targeting TRIM28 (KAP1) CCNE1, CCNA2, or CHEK2, as compared with a negative control siRNA (cat #4390843, ThermoFisher) using RNAiMAX transfection reagent (ThermoFisher). Twenty-four hours after the transfection, cells were reseeded into 384-well plates and left to adhere for 24 hours before being treated with increasing doses of prexasertib. Relative cell viability against a DMSO control was assessed 72 hours after drug treatment using Cell Titer Glo 2.0 (Promega) and a SpectraMax microplate reader. Error bars represent standard deviations from quadruplicate samples.
# Ovarian, metastases = conditions: cited from earlier work
# SW780 = test: Cell Titer Glo 2.0 viability, prexasertib alone or with gemcitabine, three days (Example 11); assay type: cell-based; conditions: Homo sapiens, 72 h, gemcitabine 0.53 nM
# Description: (§1) The present Example provides experimental evidence that treatment with gemcitabine sensitizes human cancer cell lines to treatment with prexasertib. A panel of human cancer cell lines were treated with various concentrations of prexasertib (0.17, 0.51, 1.5, 4.6, 13.7, 31.2, 123.5, 370.4, 1111, 3333, and 10000 nM) alone or in combination with various low dose concentrations of gemcitabine (0.53 and 2.7 nM). The panel of cell lines included ovarian, endometrial, bladder, breast, and prostate cancer cell lines. Two ovarian cancer cell lines (OVCAR3 and OV90) were used to generate acquired prexasertib resistant cells. For both cell lines, the parental cells (OVCAR3-P and OV90-P) and acquired prexasertib resistant cells (OVCAR3-R and OV90-R) were tested. Additionally, the panel included three cell lines that are naïve resistant to prexasertib (SW780, T47D, and PC3). After three days of treatment, cell viability relative to DMSO control was assessed using Cell Titer Glo 2.0 (Promega).
# (§2) To determine whether gemcitabine and prexasertib acts synergistically, additively, or potentially antagonistically, the panel of human cancer cell lines were treated with various concentrations of prexasertib (0.17, 0.51, 1.5, 4.6, 13.7, 31.2, 123.5, 370.4, 1111, 3333, and 10000 nM) in combination with various concentrations of gemcitabine (1, 3, 13, 67, 333, 1667, 8333 nM). After three days treatment, cell viability relative to DMSO control was assessed using Cell Titer Glo 2.0 (Promega). Drug combination effect was evaluated using SynergyFinder 2.0, see Ianevski et al., Nucleic Acids Res., gkaa216 (2020), and is presented in Table 15 as a Bliss synergy score for each cell line. Bliss synergy scores greater than 10 are indicative of a synergistic effect between prexasertib and gemcitabine, while scores between 10 and −10 are indicative of an additive effect and scores less than −10 are indicative of an antagonistic effect. […] Taken together, the results of this Example support use of a combination of prexasertib and gemcitabine (e.g., low doses of gemcitabine) for treatment of predicted non-responders to prexasertib treatment.
# T47D = test: as above; assay type: cell-based; conditions: Homo sapiens, 72 h, gemcitabine 0.53 nM, read-out: Prexasertib Relative IC50
# Description: as §1, §2
# OV90-P = test: as above; assay type: cell-based; conditions: Homo sapiens, 72 h
# Description: as §1, §2
# PC3 = test: as above; assay type: cell-based; conditions: Homo sapiens, PC-3, 72 h, gemcitabine 0.53 nM, read-out: Prexasertib Relative IC50
# Description: as §1, §2
# OV90-R = test: as above; assay type: cell-based; conditions: Homo sapiens, 72 h, gemcitabine 0.53 nM, read-out: Prexasertib Relative IC50
# Description: as §1, §2
# AN3CA = test: as above; assay type: cell-based; conditions: Homo sapiens, AN3-CA, 72 h
# Description: as §1, §2
# A2780 = test: as above; assay type: cell-based; conditions: Homo sapiens, A2780, 72 h
# Description: as §1, §2
# KLE = test: as above; assay type: cell-based; conditions: Homo sapiens, 72 h, read-out: Prexasertib Relative IC50
# Description: as §1, §2
# TCCSUP = test: as above; assay type: cell-based; conditions: Homo sapiens, TCC-SUP, 72 h
# Description: as §1, §2
# OVCAR3-P = test: as above; assay type: cell-based; conditions: Homo sapiens, 72 h
# Description: as §1, §2
# OVCAR3-R = test: as above; assay type: cell-based; conditions: Homo sapiens, 72 h
# Description: as §1, §2
# [1] = gemcitabine 0 nM, read-out: Prexasertib Absolute IC50
# [2] = gemcitabine 0 nM, read-out: Prexasertib Relative IC50
# [3] = gemcitabine 0.53 nM, read-out: Prexasertib Absolute IC50
# [4] = gemcitabine 0.53 nM, read-out: Prexasertib Relative IC50
# [5] = gemcitabine 2.7 nM, read-out: Prexasertib Absolute IC50
# [6] = gemcitabine 2.7 nM, read-out: Prexasertib Relative IC50
smiles,measurement,setting,value
"COc1cccc(OCCCN)c1-c1cc(Nc2cnc(C#N)cn2)n[nH]1 [prexasertib, 5-(5-(2-(3-aminopropoxy)-6-methoxyphenyl)-1H-pyrazol-3-ylamino)pyrazine-2-carbonitrile]",EC50,OVCAR3 cells; BM1 (CHEK2 (Chk2)) siRNA knockdown,31 nM
same,EC50,OVCAR3 cells; BM2 (TRIM28 (KAP1)) siRNA knockdown,> 10000 nM
same,EC50,OVCAR3 cells; BM3 (CCNA2 (cyclin A2)) siRNA knockdown,164 nM
same,EC50,OVCAR3 cells; BM3 (CCNE1) siRNA knockdown,> 10000 nM
same,EC50,OVCAR3 cells; negative control siRNA in the BM1 (CHEK2 (Chk2)) knockdown experiment,12 nM
same,EC50,OVCAR3 cells; negative control siRNA in the BM2 (TRIM28 (KAP1)) knockdown experiment,100 nM
same,EC50,OVCAR3 cells; negative control siRNA in the BM3 (CCNA2 (cyclin A2)) knockdown experiment,24 nM
same,EC50,OVCAR3 cells; negative control siRNA in the BM3 (CCNE1 (cyclin E1)) knockdown experiment,25 nM
same,ORR in trials,"Ovarian, metastases; Ovarian, metastases, trial 1, NCI phase II trial",32% (trial 1*)
same,response rate,"Ovarian, metastases; single center, phase 2 study in ovarian cancer at NCI, single agent",29%
same,IC50,SW780; read-out: Prexasertib Absolute IC50,0.3 nM
same,IC50,SW780; read-out: Prexasertib Relative IC50,0.06 nM
same,IC50,T47D,0.22 nM
same,IC50,OV90-P; [1],49 nM
same,IC50,OV90-P; [2],0.5 nM
same,IC50,OV90-P; [3],0.93 nM
same,IC50,OV90-P; [4],0.14 nM
same,IC50,PC3,0.15 nM
same,IC50,OV90-R,0.03 nM
same,IC50,AN3CA; [1],2.2 nM
same,IC50,AN3CA; [2],1.5 nM
same,IC50,AN3CA; [3],0.3 nM
same,IC50,AN3CA; [4],0.2 nM
same,IC50,A2780; [2],8.5 nM
same,IC50,A2780; [3],0.5 nM
same,IC50,A2780; [4],0.3 nM
same,IC50,KLE; gemcitabine 0 nM,0.36 nM
same,IC50,KLE; gemcitabine 0.53 nM,0.02 nM
same,IC50,TCCSUP; [1],2.8 nM
same,IC50,TCCSUP; [2],1.4 nM
same,IC50,TCCSUP; [3],0.08 nM
same,IC50,TCCSUP; [4],0.04 nM
same,IC50,OVCAR3-P; [1],16 nM
same,IC50,OVCAR3-P; [2],8 nM
same,IC50,OVCAR3-P; [3],3 nM
same,IC50,OVCAR3-P; [4],1.4 nM
same,IC50,OVCAR3-P; [5],0.2 nM
same,IC50,OVCAR3-P; [6],0.1 nM
same,IC50,OVCAR3-R; [3],106 nM
same,IC50,OVCAR3-R; [4],30 nM
same,IC50,OVCAR3-R; [5],6.2 nM
same,IC50,OVCAR3-R; [6],4 nM
